Blank lines part the entries; values can stand above or below the compound they belong to. Activity calls are given as the source filed them. No cut-off for these calls is given here.
What was measured:
[1] = Inhibition of HCV 1b NS5B delta21 RNA dependent RNA polymerase by enzymatic assay; design: species or system Hepacivirus hominis
Hepatitis C virus = test: Antiviral activity against Hepatitis C virus infected Huh7 cells; type: functional, organism-based, Hepacivirus hominis, Huh-7
[2] = Cytotoxic against Huh7 cells; type: cell-based, Huh-7; settings: human
[3] = Ratio of EC50 for HCV in Huh7 cells to IC50 for HCV NS5 B delta 21 polymerase; type: functional, Hepacivirus hominis, Huh-7
[4] = Fraction absorption in rat at 10 mg/kg, po; type: ADME, organism-based; design: dose 10 mg/kg, route oral; settings: in vivo
[5] = (§1) Bioavailability in rat at 10 mg/kg, po; type: ADME, organism-based; settings: in vivo
[6] = Permeability from apical to basolateral side of the Caco-2 cell membrane; type: ADME, cell-based; settings: human
[7] = Total plasma clearance in rat at 10 mg/kg, po or 2 mg/kg, iv; type: ADME, organism-based
[8] = Volume of distribution in rat at 10 mg/kg, po or 2 mg/kg, iv; type: ADME, organism-based; settings: in vivo, read-out: Vdss
[9] = Permeability from basolateral to apical side of the Caco-2 cell membrane; type: ADME, cell-based; settings: human
[10] = Half life in rat at 10 mg/kg, po or 2 mg/kg, iv; type: ADME, organism-based; settings: in vivo
Rattus norvegicus [11] = test: (§2) Volume of distribution in rat at 25 mg/kg, po or 5 mg/kg, iv; type: ADME, organism-based; settings: in vivo
Rattus norvegicus [12] = test: (§3) Half life in rat at 25 mg/kg, po or 5 mg/kg, iv; type: ADME, organism-based; settings: in vivo
[13] = Total plasma clearance in rat at 25 mg/kg, po or 5 mg/kg, iv; type: ADME, organism-based
[14] = as §2; type: ADME, organism-based; settings: in vivo, read-out: Vdss
[15] = as §3; type: ADME, organism-based; settings: in vivo
Rattus norvegicus [16] = test: as §1; type: ADME, organism-based; settings: in vivo
[17] = (§4) Inhibition of HCV 1a NS5B delta21 RNA dependent RNA polymerase by enzymatic assay; design: species or system Hepacivirus hominis
[18] = Fraction absorption in rat at 25 mg/kg, po; type: ADME, organism-based; design: dose 25 mg/kg, route oral; settings: in vivo
[19] = Bioavailability in rat at 25 mg/kg, po; type: ADME, organism-based; settings: in vivo
Hepacivirus hominis = test: as §4

SMILES: Cc1cc(C)n2nc(CC3=C(O)CC(CCc4ccc(C(C)(C)NS(C)(=O)=O)c(F)c4)(C4CCCC4)OC3=O)nc2n1 (stereo not given)
IC50 [1]: 17 nM
EC50 (Hepatitis C virus; Hepatitis C virus, Huh-7): 110 nM
CC50 ([2]; Huh7 cells): > 32 µM

SMILES: Cc1cc(C)n2nc(CC3=C(O)CC(CCc4ccc(C(C)(C)C#N)c(F)c4)(C4CCCC4)OC3=O)nc2n1 (single isomer, unassigned; enantiomer 2) [listing 1 of 2 here]
IC50 [1]: 1 nM
EC50 (Hepatitis C virus; huh-7): 32 nM
Vdss (Rattus norvegicus [11]): 0.17 L/kg
t1/2 (Rattus norvegicus [12]): 28.2 min
bioavailability [5]: 37%

SMILES: Cc1cc(C)n2nc(CC3=C(O)CC(CCc4ccc(C(C)(C)C#N)c(F)c4)(C4CCCC4)OC3=O)nc2n1 (single isomer, unassigned; enantiomer 1)
CC50 ([2]; huh-7): 320 µM
clearance [13]: 3.7 mL/min/kg
Vd [14]: 0.3 L/kg
half-life [15]: 52.8 min
F (Rattus norvegicus [16]): 31%
IC50 [17]: 70 nM

SMILES: Cc1cc(C)n2nc(CC3=C(O)CC(CCc4ccc(C(C)(C)C#N)c(F)c4)(C4CCCC4)OC3=O)nc2n1 (stereo in doubt; 22)
IC50 [1]: 3 nM
EC50 (Hepatitis C virus; huh-7): 30 nM
CC50 ([2]; huh-7): > 32 µM

SMILES: Cc1cc(SC2=C(O)OC(CCc3ccc(O)cc3)(C3CCCC3)CC2=O)c(C(C)(C)C)cc1N (stereo not given)
IC50 [1]: 930 nM

SMILES: Cc1cc(C)n2nc(CC3=C(O)CC(CCc4ccc(C(C)(C)C#N)c(Cl)c4)(C4CCCC4)OC3=O)nc2n1 (stereo not given)
IC50 [1]: 2 nM
CC50 ([2]; Huh7 cells): > 32 µM

SMILES: Cc1cc(C)n2nc(CC3=C(O)CC(CCc4ccc(C(C)(C)C#N)c(F)c4)(C4CCCC4)OC3=O)nc2n1 (single isomer, unassigned; enantiomer 2) [listing 2 of 2 here]
Activity (Hepacivirus hominis): inactive

SMILES: Cc1cc(C)n2nc(CC3=C(O)CC(CCc4ccc(S(C)(=O)=O)c(Cl)c4)(C4CCCC4)OC3=O)nc2n1 (stereo not given)
IC50 [1]: 60 nM
EC50 (Hepatitis C virus; Hepatitis C virus, Huh-7): 610 nM
CC50 ([2]; Huh7 cells): > 32 µM

Second part, led by results:

IC50 [1]: 54 nM
EC50 (Hepatitis C virus; Hepatitis C virus, Huh-7): 1200 nM
SMILES: COc1ccc(CCC2(C3CCCC3)CC(O)=C(Cc3nc4nc(C)cc(C)n4n3)C(=O)O2)cc1C (stereo not given)
CC50 ([2]; Huh7 cells): > 32 µM

IC50 [1]: 20 nM
EC50 (Hepatitis C virus; Hepatitis C virus, Huh-7): 330 nM
Fa [4]: 48%
bioavailability [5]: 42%
Papp A→B [6]: 10 ×10⁻⁶ cm/s
clearance [7]: 8.3 mL/min/kg
Vd [8]: 0.3 L/kg
Papp B→A [9]: 6.8 ×10⁻⁶ cm/s
half-life [10]: 30 min
SMILES: COc1ccc(CCC2(C3CCCC3)CC(O)=C(Cc3nc4nc(C)cc(C)n4n3)C(=O)O2)cc1Cl (stereo not given)
Ratio [3]: 17
CC50 ([2]; Huh7 cells): > 32 µM

IC50 [1]: 4 nM
EC50 (Hepatitis C virus; Hepatitis C virus, Huh-7): 320 nM
SMILES: CCOc1ccc(CCC2(C3CCCC3)CC(O)=C(Cc3nc4nc(C)cc(C)n4n3)C(=O)O2)cc1Cl (stereo not given)
CC50 ([2]; Huh7 cells): > 32 µM

IC50 [1]: 36 nM
EC50 (Hepatitis C virus; Hepatitis C virus, Huh-7): 3250 nM
clearance [13]: 14.8 mL/min/kg
Vd [14]: 2 L/kg
half-life [15]: 90 min
Fa [18]: 2.5%
bioavailability [19]: 2%
Papp A→B [6]: 3 ×10⁻⁶ cm/s
Papp B→A [9]: 2.3 ×10⁻⁶ cm/s
SMILES: COc1ccc(CCC2(C3CCCC3)CC(O)=C(Sc3nc4nc(C)cc(C)n4n3)C(=O)O2)cc1Cl (stereo not given)
Ratio [3]: 90
CC50 ([2]; Huh7 cells): > 100 µM

IC50 [1]: 15 nM
EC50 (Hepatitis C virus; Hepatitis C virus, Huh-7): 400 nM
SMILES: COc1ccc(CCC2(C3CCCC3)CC(O)=C(Cc3nc4nc(C)cc(C)n4n3)C(=O)O2)cc1F (stereo not given)
CC50 ([2]; Huh7 cells): > 32 µM

— ChEMBL document CHEMBL1148726, “Allosteric inhibitors of hepatitis C polymerase: discovery of potent and orally bioavailable carbon-linked dihydropyrones” (J Med Chem, 2007)
